In BindingDB's records for doi:10.1021/acsmedchemlett.8b00461 (Pfizer, 2019):

How the values were obtained:
[1] = Inhibition of BTK in goat anti-human IgM F(ab')2-stimulated human B cells assessed as reduction in cell proliferation pretreated for 30 mins followed by goat anti-human IgM F(ab')2-stimulation and measured after 3 days by [3H]-thymidine incorporation assay
[2] = Inhibition of BTK in anti-CD3/CD28-stimulated human CD4-positive T cells assessed as reduction in cell proliferation pretreated for 30 mins followed by anti-CD3/CD28-stimulation and measured after 3 days by [3H]-thymidine incorporation assay

N#CN1CCC[C@@H](n2nc(-c3ccc(Oc4ncc(Cl)cc4F)cc3)c(C(N)=O)c2N)C1 [(R)-5-amino-3-(4-((5-chloro-3-fluoropyridin-2-yl)oxy)phenyl)-1-(1-cyanopiperidin-3-yl)-1H-pyrazole-4-carboxamide]
IC50 [1]: 19 nM | IC50 [2]: > 10000 nM

N#CN1CCC[C@@H](n2nc(-c3ccc(Oc4cccc(C(F)(F)F)n4)cc3)c(C(N)=O)c2N)C1
IC50 [1]: 15 nM | IC50 [2]: 10100 nM

N#CN1CCCC(n2nc(-c3ccc(Oc4ccc(Cl)cc4)cc3)c(C(N)=O)c2N)C1 (single isomer, unassigned)
IC50 [1]: 1.7 nM | IC50 [2]: 8150 nM

N#CN1CCC[C@@H](n2nc(-c3ccc(Oc4ccc(F)cc4F)cc3)c(C(N)=O)c2N)C1
IC50 [1]: 2.7 nM | IC50 [2]: > 10000 nM

N#CN1CCC[C@@H](n2nc(-c3ccc(Oc4ccc(Cl)cn4)cc3)c(C(N)=O)c2N)C1
IC50 [1]: 1.6 nM | IC50 [2]: > 10000 nM
